“And” between values parts separate entries of the source, which are not always exact repeats. Equal values may be shown once.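 Growth conditions: 96-well plates. Treatment: test compound, 48 hours, 5 concentrations. Analysis: linear interpolation between bracketing concentrations; unreached endpoints set to highest concentration. Abbreviation: GI50, concentration required for 50% inhibition of growth.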 The source made the active and inactive calls. No stated cut-off is given here; in the data, active = GI50 up to about 1.1 µM and inactive = higher.
Tests used:
Experiment in all cases: inhibition of tumour cell growth, NCI panel, 48 h
HCT-116 = test system: HCT-116
786-0 = test system: 786-0
SNB-78 = test system: SNB-78
LOX IMVI = test system: LOX IMVI
NCI-H23 = test system: NCI-H23
OVCAR-8 = test system: OVCAR-8
SF-268 = test system: SF-268
MCF7 = test system: MCF7
T47D = test system: T47D
COLO 205 = test system: COLO 205
A498 = test system: A498
U-251 = test system: U-251
SK-MEL-2 = test system: SK-MEL-2
HL-60 = test system: HL-60
SF-539 = test system: SF-539
HOP-92 = test system: HOP-92
KM12 = test system: KM12
MDA-N = test system: MDA-N
MDA-MB-231 = test system: MDA-MB-231
NCI/ADR-RES = test system: NCI/ADR-RES

SMILES: CC[N+]1(C)CCC(O)(c2ccc(OC)cc2)C(C(=O)c2ccc(OC)cc2)C1 (stereo unspecified)
- GI50 (HCT-116): 9.27 µM (inactive)
- GI50 (786-0): 3.18 µM (inactive)
- GI50 (SNB-78): 14.8 µM (inactive)
- GI50 (LOX IMVI): 16.3 µM (inactive)
- GI50 (NCI-H23): 17.9 µM (inactive)
- GI50 (OVCAR-8): 21 µM (inactive)
- GI50 (SF-268): 21.2 µM (inactive)
- GI50 (MCF7): 4.4 µM (inactive)
- GI50 (T47D): 13.4 µM (inactive)
- GI50 (COLO 205): 3.15 µM (inactive)
- GI50 (A498): 17.6 µM (inactive)
- GI50 (U-251): 1.54 µM (inactive)
- GI50 (SK-MEL-2): 18.8 µM (inactive)
- GI50 (HL-60): 2.52 µM (inactive)
- GI50 (SF-539): 17.4 µM (inactive)
- GI50 (HOP-92): 2.63 µM (inactive)
- GI50 (KM12): 16 µM (inactive)
- GI50 (MDA-N): 16.6 µM (inactive)

SMILES: CCOc1ccc2nc(NC(=O)C(=O)C(C(=O)c3ccccc3-c3ccccc3)C3OC(=O)c4ccccc43)sc2c1 (stereo unspecified)
- GI50 (MDA-MB-231): 25.9 µM (inactive)
- GI50 (HCT-116): 18.4 µM (inactive)
- GI50 (786-0): 16.5 µM (inactive)
- GI50 (SNB-78): 18.6 µM (inactive)
- GI50 (LOX IMVI): 17.5 µM (inactive)
- GI50 (NCI-H23): 17.9 µM (inactive)
- GI50 (OVCAR-8): 8.22 µM (inactive)
- GI50 (SF-268): 19.8 µM (inactive)
- GI50 (MCF7): 21.2 µM (inactive)
- GI50 (T47D): 13.9 µM (inactive)
- GI50 (COLO 205): 19.4 µM (inactive)
- GI50 (A498): 22.1 µM (inactive)
- GI50 (U-251): 15 µM (inactive)
- GI50 (SK-MEL-2): 17.8 µM (inactive)
- GI50 (HL-60): 22.8 µM (inactive)
- GI50 (SF-539): 8.32 µM (inactive)
- GI50 (HOP-92): 17.5 µM (inactive)
- GI50 (KM12): 8.93 µM (inactive)
- GI50 (NCI/ADR-RES): 12.1 µM (inactive)
- GI50 (MDA-N): 19.6 µM (inactive)

SMILES: NCCCNCCSP(=O)(O)O [AMIFOSTINE]
- GI50 (HCT-116): 743 µM (inactive)
- GI50 (SNB-78): > 750 µM (inactive)
- GI50 (LOX IMVI): 270 µM (inactive)
- GI50 (NCI-H23): > 750 µM (inactive)
- GI50 (OVCAR-8): > 511 µM (inactive)
- GI50 (SF-268): > 750 µM (inactive)
- GI50 (MCF7): > 750 µM (inactive)
- GI50 (COLO 205): 385 µM (inactive)
- GI50 (A498): > 75 µM (inactive)
- GI50 (U-251): > 750 µM (inactive)
- GI50 (SK-MEL-2): > 242 µM (inactive)
- GI50 (HL-60): 176 µM (inactive)
- GI50 (SF-539): > 750 µM (inactive)
- GI50 (HOP-92): > 750 µM (inactive)
- GI50 (KM12): 543 µM (inactive)
- GI50 (NCI/ADR-RES): > 750 µM (inactive)

SMILES: CC(=O)c1cc([N+](=O)[O-])ccc1OCC(=O)O
- GI50 (HCT-116): > 100 µM (inactive)
- GI50 (786-0): > 100 µM (inactive)
- GI50 (SNB-78): > 100 µM (inactive)
- GI50 (LOX IMVI): > 100 µM (inactive)
- GI50 (NCI-H23): > 100 µM (inactive)
- GI50 (OVCAR-8): > 100 µM (inactive)
- GI50 (SF-268): > 100 µM (inactive)
- GI50 (COLO 205): > 100 µM (inactive)
- GI50 (A498): > 100 µM (inactive)
- GI50 (U-251): > 100 µM (inactive)
- GI50 (SK-MEL-2): > 100 µM (inactive)
- GI50 (HL-60): > 100 µM (inactive)
- GI50 (SF-539): > 100 µM (inactive)
- GI50 (HOP-92): > 100 µM (inactive)
- GI50 (KM12): > 100 µM (inactive)

SMILES: CCCCC1(C2c3ccccc3Oc3ccccc32)C(=O)N(c2ccccc2)N(c2ccccc2)C1=O
- GI50 (HCT-116): 41.3 µM (inactive)
- GI50 (SNB-78): 37.1 µM (inactive)
- GI50 (LOX IMVI): 41 µM (inactive)
- GI50 (NCI-H23): 32.1 µM (inactive)
- GI50 (OVCAR-8): > 100 µM (inactive)
- GI50 (SF-268): > 79.1 µM (inactive)
- GI50 (MCF7): 55 µM (inactive)
- GI50 (COLO 205): > 100 µM (inactive)
- GI50 (A498): 64.9 µM (inactive)
- GI50 (U-251): 31.3 µM (inactive)
- GI50 (SK-MEL-2): > 100 µM (inactive)
- GI50 (HL-60): 21.9 µM (inactive)
- GI50 (SF-539): > 100 µM (inactive)
- GI50 (HOP-92): 97.5 µM (inactive)
- GI50 (KM12): 63.5 µM (inactive)
- GI50 (NCI/ADR-RES): 62.2 µM (inactive)

SMILES: COc1ccc(-c2nc(SC)n(C3OC(COC(C)=O)C(OC(C)=O)C(OC(C)=O)C3OC(C)=O)c(=O)c2C#N)cc1 (stereo unspecified)
- GI50 (MDA-MB-231): > 100 µM (inactive)
- GI50 (HCT-116): > 100 µM (inactive) and 91.2 µM (inactive)
- GI50 (786-0): 64.3 µM (inactive)
- GI50 (SNB-78): 21 µM (inactive)
- GI50 (LOX IMVI): 56.4 µM (inactive)
- GI50 (OVCAR-8): 79.3 µM (inactive)
- GI50 (MCF7): > 100 µM (inactive)
- GI50 (T47D): 95.7 µM (inactive)
- GI50 (COLO 205): > 100 µM (inactive)
- GI50 (U-251): 34.7 µM (inactive) and 39.5 µM (inactive)
- GI50 (SK-MEL-2): > 100 µM (inactive) and 73.3 µM (inactive)
- GI50 (HL-60): > 100 µM (inactive)
- GI50 (KM12): > 100 µM (inactive)
- GI50 (NCI/ADR-RES): 79.8 µM (inactive)
- GI50 (MDA-N): > 100 µM (inactive)

SMILES: Cn1c(/C=C/CO)c(CO)c2c1C(=O)C=C(N1CC1)C2=O [APAZIQUONE]
- GI50 (HCT-116): 0.0109 µM (active)
- GI50 (SNB-78): 0.2 µM (active)
- GI50 (LOX IMVI): < 0.01 µM (active)
- GI50 (OVCAR-8): < 0.0156 µM (active)
- GI50 (SF-268): 0.0137 µM (active)
- GI50 (MCF7): < 0.01 µM (active)
- GI50 (COLO 205): < 0.0122 µM (active)
- GI50 (A498): < 0.0124 µM (active)
- GI50 (U-251): < 0.01 µM (active)
- GI50 (SK-MEL-2): < 0.01 µM (active)
- GI50 (HL-60): 0.0259 µM (active)
- GI50 (SF-539): < 0.01 µM (active)
- GI50 (HOP-92): 0.222 µM (active)
- GI50 (KM12): < 0.01 µM (active)
- GI50 (NCI/ADR-RES): < 0.01 µM (active)

SMILES: CC(=O)OCc1cc(=O)n(C)c2c3c4c(cc12)c(C)cc(=O)n4CO3
- GI50 (HCT-116): 0.367 µM (active)
- GI50 (SNB-78): 1.99 µM (inactive)
- GI50 (LOX IMVI): 1.26 µM (inactive)
- GI50 (NCI-H23): 1.68 µM (inactive)
- GI50 (OVCAR-8): 0.555 µM (active)
- GI50 (SF-268): 0.782 µM (active)
- GI50 (MCF7): 2.3 µM (inactive)
- GI50 (COLO 205): 1.23 µM (inactive)
- GI50 (A498): 2.38 µM (inactive)
- GI50 (U-251): 1.23 µM (inactive)
- GI50 (SK-MEL-2): 1.75 µM (inactive)
- GI50 (HL-60): 1.4 µM (inactive)
- GI50 (SF-539): 1.03 µM (active)
- GI50 (HOP-92): 1.95 µM (inactive)
- GI50 (KM12): 1.23 µM (inactive)
- GI50 (NCI/ADR-RES): 1 µM (active)

SMILES: CCOC(=O)c1sc(Nc2cc(Cl)ccc2Cl)nc1C
- GI50 (HCT-116): > 100 µM (inactive)
- GI50 (786-0): > 100 µM (inactive)
- GI50 (SNB-78): > 100 µM (inactive)
- GI50 (LOX IMVI): > 100 µM (inactive)
- GI50 (NCI-H23): 34.4 µM (inactive)
- GI50 (OVCAR-8): 96.4 µM (inactive)
- GI50 (SF-268): > 100 µM (inactive)
- GI50 (COLO 205): > 100 µM (inactive)
- GI50 (A498): > 100 µM (inactive)
- GI50 (U-251): > 100 µM (inactive)
- GI50 (SK-MEL-2): 95.1 µM (inactive)
- GI50 (HL-60): > 100 µM (inactive)
- GI50 (SF-539): > 100 µM (inactive)
- GI50 (HOP-92): 22.6 µM (inactive)
- GI50 (KM12): > 100 µM (inactive)

SMILES: CC(C)c1cccc2sc(NC(=O)C(=O)CC(=O)c3ccc(F)cc3)nc12
- GI50 (HCT-116): > 100 µM (inactive)
- GI50 (786-0): > 100 µM (inactive)
- GI50 (SNB-78): > 100 µM (inactive)
- GI50 (LOX IMVI): > 100 µM (inactive)
- GI50 (NCI-H23): > 100 µM (inactive)
- GI50 (OVCAR-8): > 100 µM (inactive)
- GI50 (SF-268): > 100 µM (inactive)
- GI50 (COLO 205): > 100 µM (inactive)
- GI50 (A498): > 100 µM (inactive)
- GI50 (U-251): > 100 µM (inactive)
- GI50 (SK-MEL-2): > 100 µM (inactive)
- GI50 (HL-60): > 100 µM (inactive)
- GI50 (SF-539): > 100 µM (inactive)
- GI50 (HOP-92): > 100 µM (inactive)
- GI50 (KM12): > 100 µM (inactive)

Source: ChEMBL document CHEMBL1201862, “PubChem BioAssay data set” (2004)
